# Data as given in PubChem BioAssay AID2060491 (Molecular Pharmacology Branch, DTP, NCI, 2025).
# Test system: 857933-349-R-J2-PDC complex spheroids, viability
# Test: Anticancer human tumor 857933-349-R-J2-PDC patient-derived colon adenocarcinoma cell line growth inhibition [GQUAD]
# Conditions: for IC50: curve of first compound; for viability, T/C: stronger effect = lower value
# From the text: DNA G-quadruplex Stabilizer Agents in Combinations in Complex Spheroids
# A high-throughput screen of multi-cell type tumor spheroids was designed to identify active combinations of DNA G-quadruplex stabilizer agents and targeted small molecules. Complex spheroids include a stromal component modeled by human endothelial cells (HUVEC) and fibroblasts modeled by human mesenchymal stem cells (MSCs). The concentration ranges selected for each drug and investigational agent were based upon clinically achievable concentrations if the clinical Cmax of the agent was known.
# Compounds. The drugs and investigational agents: pidnarulex (CX-5461; NSC782164), APTO-253 (NSC789042), BRACO-19 (NSC847499), peposertib (NSC802822), ceralasertib (NSC780249), elimusertib (NSC800525), camonsertib (NSC841442), AZD-1390 (NSC803789), olaparib (NSC753686), talazoparib (NSC767125), ART-558 (NSC835418), sotorasib (NSC818433), MRTX-1133 (NSC836407), SN-38 (NSC673596), topotecan (NSC609699), etoposide (NSC141540), doxorubicin (NSC123127), gemcitabine (NSC613327), 5-fluorouracil (NSC19893), paclitaxel (NSC125973), vemurafenib (NSC761431), panobinostat (NSC761190), R-306465 (JNJ-16241199; NSC773264), adavosertib (NSC754352), TP-3654 (NSC805149), carboplatin (NSC241240), KSQ-4279 (NSC840948), and staurosporine (NSC755774) were obtained from the National Cancer Institute (NCI) Developmental Therapeutics Program Chemical Repository (34). The FDA-approved anticancer drug set is available from the NCI Developmental Therapeutics Program. […] The stock solutions were prepared in dimethyl sulfoxide (DMSO, Sigma-Aldrich, St. Louis, MO, cat. D2650) at 800-fold the tested concentration and stored at -70 degrees C prior to their use. All drugs and investigational agents were tested over a range starting from a high concentration at or near the clinical Cmax and decreasing in half-log increments. If the clinical Cmax for an agent had not been determined, the highest concentration tested was 10 microM.
# 2.3 Cell Culture. All cells were maintained in an incubator at 37 degrees C and 5% CO2 with 95% humidity. The PDC lines were cultured according to standard operating procedures established by the NCI PDMR. All PDCs were thawed and cultured in Matrigel-coated flasks prepared with a working solution of 1X Ham's F-12 nutrient mix, without supplementation (Invitrogen, cat. 11765054), 100 U/mL penicillin-streptomycin (Invitrogen, cat. 15140122), and 2.5% Matrigel (Corning Inc., cat. 354248) for the first three passages. The 857933-349-R-J2-PDC line was cultured in 6C/Colon 1B media, which includes advanced DMEM/F-12 (Thermo Fisher Scientific, cat. 12634028), 10 mM HEPES (Thermo Fisher Scientific, cat. 15630080), 1X GlutaMAX supplement (Thermo Fisher Scientific, cat. 35050061), 0.1 mg/mL primocin (InvivoGen, cat. ant-pm-2), 10% defined fetal bovine serum, heat inactivated (HyClone Laboratories Inc., cat. SH30070.03HI), 50% L-WRN conditioned media (ATCC, cat. CRL-3276), 1.25 mM N-Acetyl-L-cysteine (Sigma-Aldrich, cat. A9165), 10 mM nicotinamide (Sigma-Aldrich, cat. N0636), 1X B-27 supplement (Thermo Fisher Scientific, cat. 17504044), 1X N-2 supplement (Thermo Fisher Scientific, cat. 17502048), 10 microM Y-27632 dihydrochloride (Tocris Bioscience, cat. 1254), and 50 ng/mL human EGF recombinant protein (Thermo Fisher Scientific, cat. PHG0311). The 485176-168-R4-J1-PDC line was cultured in Panc media, which includes all 6C/Colon 1B media components plus 100 ng/mL human FGF-10 (Thermo Fisher Scientific, cat. 100-26), 500 nM SB-431542 (Selleckchem, cat. S1067), and gastrin (Tocris, cat. 3006).
# […]
# [1] = second compound 0.0316 µM, first compound 0.0316 µM
# [2] = second compound 0.0316 µM, first compound 0.1 µM
# [3] = second compound 0.0316 µM, first compound 0.316 µM
# [4] = second compound 0.0316 µM, first compound 1 µM
# [5] = second compound 0.0316 µM, first compound 3.16 µM
# [6] = second compound 0.0316 µM, first compound 10 µM
# [7] = second compound 0.1 µM, first compound 0.0316 µM
# [8] = second compound 0.1 µM, first compound 0.1 µM
# [9] = second compound 0.1 µM, first compound 0.316 µM
# [10] = second compound 0.1 µM, first compound 1 µM
# [11] = second compound 0.1 µM, first compound 3.16 µM
# [12] = second compound 0.1 µM, first compound 10 µM
# [13] = second compound 0.316 µM, first compound 0.0316 µM
# [14] = second compound 0.316 µM, first compound 0.1 µM
# [15] = second compound 0.316 µM, first compound 0.316 µM
# [16] = second compound 0.316 µM, first compound 1 µM
# [17] = second compound 0.316 µM, first compound 3.16 µM
# [18] = second compound 0.316 µM, first compound 10 µM
# [19] = second compound 1 µM, first compound 0.0316 µM
# [20] = second compound 1 µM, first compound 0.1 µM
# [21] = second compound 1 µM, first compound 0.316 µM
# [22] = second compound 1 µM, first compound 1 µM
# [23] = second compound 1 µM, first compound 3.16 µM
# [24] = second compound 1 µM, first compound 10 µM
# [25] = second compound 3.16 µM, first compound 0.0316 µM
# [26] = second compound 3.16 µM, first compound 0.1 µM
# [27] = second compound 3.16 µM, first compound 0.316 µM
# [28] = second compound 3.16 µM, first compound 1 µM
# [29] = second compound 3.16 µM, first compound 3.16 µM
# [30] = second compound 3.16 µM, first compound 10 µM
# [31] = second compound 10 µM, first compound 0.0316 µM
# [32] = second compound 10 µM, first compound 0.1 µM
# [33] = second compound 10 µM, first compound 0.316 µM
# [34] = second compound 10 µM, first compound 1 µM
# [35] = second compound 10 µM, first compound 3.16 µM
# [36] = second compound 10 µM, first compound 10 µM
# 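Note: spheroids exposed to compounds for one week before readout.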
# 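Throughout, for viability, T/C: percent viability relative to vehicle DMSO wells taken as 100%.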
smiles,measurement,setting,value
CC1COCCN1c1cc(C2(O)CC3CCC(C2)O3)c2cnn(-c3ccn[nH]3)c2n1 (stereo unspecified) + CN(C)c1ccc(Nc2c3ccc(NC(=O)CCN4CCCC4)cc3nc3cc(NC(=O)CCN4CCCC4)ccc23)cc1,IC50,second compound 0.0316 µM,9.43 µM
same,IC50,second compound 0.1 µM,> 10 µM
same,IC50,second compound 0.316 µM,> 10 µM
same,IC50,second compound 1 µM,> 10 µM
same,IC50,second compound 3.16 µM,> 10 µM
same,IC50,second compound 10 µM,3.11 µM
same,"viability, T/C",[1],104%
same,"viability, T/C",[2],90.6%
same,"viability, T/C",[3],73.8%
same,"viability, T/C",[4],61.5%
same,"viability, T/C",[5],51.4%
same,"viability, T/C",[6],50.7%
same,"viability, T/C",[7],97.8%
same,"viability, T/C",[8],92.4%
same,"viability, T/C",[9],75.6%
same,"viability, T/C",[10],60.2%
same,"viability, T/C",[11],53.8%
same,"viability, T/C",[12],55.4%
same,"viability, T/C",[13],94.1%
same,"viability, T/C",[14],82.5%
same,"viability, T/C",[15],74.2%
same,"viability, T/C",[16],52.7%
same,"viability, T/C",[17],56.9%
same,"viability, T/C",[18],54.1%
same,"viability, T/C",[19],92.8%
same,"viability, T/C",[20],76%
same,"viability, T/C",[21],71%
same,"viability, T/C",[22],54.6%
same,"viability, T/C",[23],62.6%
same,"viability, T/C",[24],50.1%
same,"viability, T/C",[25],88.2%
same,"viability, T/C",[26],71.9%
same,"viability, T/C",[27],75.3%
same,"viability, T/C",[28],55%
same,"viability, T/C",[29],59.4%
same,"viability, T/C",[30],50%
same,"viability, T/C",[31],70.7%
same,"viability, T/C",[32],70.2%
same,"viability, T/C",[33],63.5%
same,"viability, T/C",[34],54.9%
same,"viability, T/C",[35],51.7%
same,"viability, T/C",[36],40.8%
CC1COCCN1c1cc(C2(S(C)(=N)=O)CC2)nc(-c2ccnc3[nH]ccc23)n1 (stereo unspecified) + CN(C)c1ccc(Nc2c3ccc(NC(=O)CCN4CCCC4)cc3nc3cc(NC(=O)CCN4CCCC4)ccc23)cc1,IC50,second compound 0.0316 µM,> 10 µM
same,IC50,second compound 0.1 µM,> 10 µM
same,IC50,second compound 0.316 µM,> 10 µM
same,IC50,second compound 1 µM,> 10 µM
same,IC50,second compound 3.16 µM,> 10 µM
same,IC50,second compound 10 µM,> 10 µM
same,"viability, T/C",[1],104%
same,"viability, T/C",[2],108%
same,"viability, T/C",[3],102%
same,"viability, T/C",[4],87.7%
same,"viability, T/C",[5],82.4%
same,"viability, T/C",[6],63.2%
same,"viability, T/C",[7],106%
same,"viability, T/C",[8],102%
same,"viability, T/C",[9],101%
same,"viability, T/C",[10],94.9%
same,"viability, T/C",[11],75.1%
same,"viability, T/C",[12],69.2%
same,"viability, T/C",[13],103%
same,"viability, T/C",[14],99.1%
same,"viability, T/C",[15],97.8%
same,"viability, T/C",[16],88.8%
same,"viability, T/C",[17],86.6%
same,"viability, T/C",[18],66.1%
same,"viability, T/C",[19],99.2%
same,"viability, T/C",[20],94.6%
same,"viability, T/C",[21],96.4%
same,"viability, T/C",[22],88%
same,"viability, T/C",[23],82.5%
same,"viability, T/C",[24],62.7%
same,"viability, T/C",[25],92.3%
same,"viability, T/C",[26],84.9%
same,"viability, T/C",[27],94.8%
same,"viability, T/C",[28],81.2%
same,"viability, T/C",[29],81.6%
same,"viability, T/C",[30],59.6%
same,"viability, T/C",[31],70.8%
same,"viability, T/C",[32],76.8%
same,"viability, T/C",[33],77.5%
same,"viability, T/C",[34],78%
same,"viability, T/C",[35],69.8%
same,"viability, T/C",[36],61.4%
COc1ccc([C@@H](O)c2cc(-c3ncnc4cc(N5CCOCC5)ccc34)c(F)cc2Cl)nn1 + CN(C)c1ccc(Nc2c3ccc(NC(=O)CCN4CCCC4)cc3nc3cc(NC(=O)CCN4CCCC4)ccc23)cc1,IC50,second compound 0.0316 µM,> 10 µM
same,IC50,second compound 0.1 µM,> 10 µM
same,IC50,second compound 0.316 µM,> 10 µM
same,IC50,second compound 1 µM,> 10 µM
same,IC50,second compound 3.16 µM,> 10 µM
same,IC50,second compound 10 µM,> 10 µM
same,"viability, T/C",[1],110%
same,"viability, T/C",[2],99.5%
same,"viability, T/C",[3],101%
same,"viability, T/C",[4],93.3%
same,"viability, T/C",[5],82.5%
same,"viability, T/C",[6],61%
same,"viability, T/C",[7],106%
same,"viability, T/C",[8],101%
same,"viability, T/C",[9],103%
same,"viability, T/C",[10],94.2%
same,"viability, T/C",[11],80.9%
same,"viability, T/C",[12],60.1%
same,"viability, T/C",[13],102%
same,"viability, T/C",[14],101%
same,"viability, T/C",[15],99.1%
same,"viability, T/C",[16],85.8%
same,"viability, T/C",[17],83.6%
same,"viability, T/C",[18],58.2%
same,"viability, T/C",[19],98.8%
same,"viability, T/C",[20],91.2%
same,"viability, T/C",[21],99.3%
same,"viability, T/C",[22],85.4%
same,"viability, T/C",[23],79%
same,"viability, T/C",[24],62.4%
same,"viability, T/C",[25],85.2%
same,"viability, T/C",[26],85.9%
same,"viability, T/C",[27],91.5%
same,"viability, T/C",[28],77.8%
same,"viability, T/C",[29],69.5%
same,"viability, T/C",[30],57.1%
same,"viability, T/C",[31],73.5%
same,"viability, T/C",[32],77.9%
same,"viability, T/C",[33],70.4%
same,"viability, T/C",[34],72.5%
same,"viability, T/C",[35],63.4%
same,"viability, T/C",[36],54.8%
